The nature of data set [1]: Cytotoxicity against mouse 3PS cells xenografted in mouse at 30 mg/kg relative to control. Format: functional.
Data set [2] deals with Agrobacterium tumefaciens. Put plainly: Effect on Agrobacterium tumefaciens-induced crown gall tumor in potato tubers by potato disk assay relative to control. It is filed as functional.
Data set [3] is described as follows: Toxicity in Artemia salina. Particulars: in vivo. It is filed as organism-based.
The test system of data set [4] is Spodoptera frugiperda. Put plainly: Antifeedant activity against Spodoptera frugiperda assessed as feeding ratio for 5 seconds. It is filed as functional.
Data set [5] deals with Agrobacterium tumefaciens. Put plainly: Antitumor activity against Agrobacterium tumefaciens-induced crown gall tumor assessed as tumor inhibition in potato tubers by potato disk assay relative to control. Format: functional.
Data set [6] is described as follows: Cytotoxicity against mouse 3PS cells xenografted in mouse at 35 mg/kg relative to control. It is filed as functional.
Data set [7] can be described thus: Cytotoxicity against mouse 3PS cells xenografted in mouse at 37 mg/kg relative to control. Format: functional.
The nature of data set [8]: Cytotoxicity against mouse 3PS cells xenografted in mouse at 18 mg/kg relative to control. It is filed as functional.

Each structure is given as a SMILES string. ≈ marks a conversion by molar mass, not a printed value.

One may read the T/C as the ratio of treated to control. The term LC50 denotes the concentration that kills 50% of the test population.

In turn, `Oc1ccc(/C=C/c2cc(O)cc3c2[C@H](c2cc(O)cc(O)c2)[C@@H](c2ccc(O)c(O)c2)O3)cc1` [SCIRPUSIN A] returned a T/C in data set [1] of 103%. For the same molecule, the Activity in data set [2] turned out to be 17%. In addition, the 50% lethal concentration (LC50) in data set [3] is 488 µg/mL (≈ 1040 µM). Further, the Ratio in data set [4] stood at 1.
`Oc1cc(O)cc(/C=C/c2ccc(O)c(O)c2)c1` [PICEATANNOL] registered a 50% lethal concentration (LC50) in data set [3] of 278 µg/mL (≈ 1140 µM). The Ratio in data set [4] came out at 0.38. In addition, the “inhibition (INH)” value in data set [5] was 17%. The same molecule showed a T/C in data set [6] of 131%.
On to `Oc1ccc(/C=C/c2cc(O)cc(O)c2)cc1` [RESVERATROL], for which the Activity in data set [2] is 39%. Besides, the T/C in data set [7] worked out at 100%.
Regarding `Oc1cc(O)cc(C2c3c(/C=C/c4ccc(O)c(O)c4)cc(O)cc3OC2c2ccc(O)c(O)c2)c1` (centres undefined) [SCIRPUSIN B], in data set [3], the LC50 amounted to 389 µg/mL (≈ 800 µM). This molecule also gave a T/C in data set [8] of 99%. The Ratio in data set [4] is 0.23. Further, the “inhibition (INH)” value in data set [5] worked out at 40%.
